The source of these data is publication PMC11484510, “Antibacterial activity of structurally diverse natural prenylated isobavachalcone derivatives” (RSC Advances, 2024).

One experiment deals with MRSA ATCC 15187. As to the kind of experiment: MIC, broth microdilution (CLSI), Alamar blue. It is filed as cell-based, Methicillin-resistant S. aureus. The note with it: MRSA ATCC 15187, 24 hours at 37 °C, read-out: Minimum inhibitory concentration (MIC) MRSA. The text has this:
(§1) The bacterial strains S. aureus ATCC 29213, MRSA ATCC 15187, E. coli ATCC 25922, and P. aeruginosa ATCC 27853 were obtained from ATCC (American Type Culture Collection). Cation-adjusted Mueller–Hinton broth (MHB; Becton–Dickinson, Cockeysville, MD) was used to determine the minimum inhibitory concentration (MIC). Mueller–Hinton agar (MHA; Becton–Dickinson) was used for minimum bactericidal concentration (MBC) studies. Alamar blue (Himedia) was used to detect the MIC value.
(§2) The antibacterial activity of the compounds against S. aureus ATCC 29213, MRSA ATCC 15187, E. coli ATCC 25922, and P. aeruginosa ATCC 27853 was determined through a broth microdilution method according to the guidelines of the Clinical and Laboratory Standards Institute (CLSI).[50] […] Growth control and media control were employed along with 2% DMSO as vehicle control.
(§3) In a 96-well flat bottom plate, the test compounds were two-fold serially diluted in Mueller Hinton Broth (MHB). The final concentrations of the compounds ranged from 100 to 0.08 μM. 100 μL of standardized bacterial inoculum with turbidity equivalent to 0.5 McFarland standard (1.5 × 10^8 CFU mL^−1) was diluted 1 : 100 (1.5 × 10^6 CFU mL^−1) in Mueller Hinton Broth and inoculated in the plates.[51] The plates were incubated for 24 hours at 37 °C. After incubation, 10 μL of freshly prepared Alamar blue (Himedia) was added to each well of the plate, and plates were further incubated at 37 °C for 30 minutes. After incubation, the fluorescence was measured at excitation/emission of 540–570/580–610 nm. The percentage inhibition and viability were calculated for the controls, and the Gompertz curve was utilized to estimate the minimum inhibitory concentration.

In experiment [1] the test system is S. aureus ATCC 29213. In words: Time-kill assay. It is filed as cell-based.
The next experiment relates to P. aeruginosa ATCC 27853. As to the kind of experiment: MIC, broth microdilution (CLSI), Alamar blue. The settings on record: P. aeruginosa ATCC 27853, 24 hours at 37 °C, read-out: Minimum inhibitory concentration (MIC) P. aeruginosa. It is filed as cell-based.
Source text: as §1, §2, §3
In general terms: Dilution methods test growth across graded concentrations, often in twofold steps.

Another experiment has as its system E. coli ATCC 25922. As to the kind of experiment: MIC, broth microdilution (CLSI), Alamar blue. The settings on record: E. coli ATCC 25922, 24 hours at 37 °C, read-out: Minimum inhibitory concentration (MIC) E. coli. It is filed as cell-based.
Source text: as §1, §2, §3

The subject of experiment [2] is S. aureus ATCC 29213. As to the kind of experiment: MIC, broth microdilution (CLSI), Alamar blue. It is filed as cell-based. The note with it: S. aureus ATCC 29213, 24 hours at 37 °C, read-out: Minimum inhibitory concentration (MIC) S. aureus.
Source text: as §1, §2, §3

Structures are written as SMILES. Values after ≈ are worked out from the molar mass of the structure shown. “Also recorded” adds a separate entry of the source. Like-named read-outs stand apart in the source and are kept apart here.

For the compound `CC(C)=CCc1c(O)ccc2c1O/C(=C\c1ccc(O)cc1)C2=O` [IBC-3, (Z)-6-hydroxy-2-(4-hydroxybenzylidene)-7-(3-methylbut-2-en-1-yl)benzofuran-3(2H)-one], the MIC with MRSA ATCC 15187 was found to be 6 µM (≈ 1.93 µg/mL); in the experiment with MRSA ATCC 15187 (Staphylococcus aureus), 6 µM (≈ 1.93 µg/mL); with P. aeruginosa ATCC 27853, 24 µM (≈ 7.74 µg/mL); in the experiment on P. aeruginosa ATCC 27853 (Pseudomonas aeruginosa, ATCC27853, 24 h), 24 µM (≈ 7.74 µg/mL); in the experiment with E. coli ATCC 25922 it was 23 µM (≈ 7.41 µg/mL); in the experiment on E. coli ATCC 25922 (Escherichia coli, ATCC25922) it was 23 µM (≈ 7.41 µg/mL). Further, the MIC in the experiment on S. aureus ATCC 29213 [2] came out at 10 µM (≈ 3.22 µg/mL); in the experiment on S. aureus ATCC 29213 [2] (Staphylococcus aureus, ATCC29213) it was 10 µM (≈ 3.22 µg/mL). In addition, the “CFU count of S. aureus ATCC 29213 in time-kill study” value in the experiment with S. aureus ATCC 29213 [1] (2× MIC and 4× MIC, with increasing time (up to 24 h)) was “below the detection limit”. For the same compound, the Time-kill profile entry in the experiment with S. aureus ATCC 29213 [1] (MIC, 2× MIC, 4× MIC, 1 h to 24 h, 37 °C) is “concentration-dependent killing effect; also recorded: concentration and time-dependent killing effects”.
